Earlier results, collected in US20120270783A1, “Rapid opioid detoxification” (priority 2011, published 2012).
Where two headings read alike, the source gives them in different places.

Tests used:
[1] = in vivo
[2] = system: receptor sites; conditions: relative to naloxone

Structure (SMILES)	time to rapid awakening after discontinuation (after maintenance of anesthesia for approximately 1-10 hours at recommended doses)	time to rapid awakening after discontinuation, usual (usually, after maintenance of anesthesia for approximately 1-10 hours) [min]	half-life [1] [h]	half-life ([1]; listed as Nalmefene)	receptor sites occupied, more than naloxone [2]
CC(C)c1cccc(C(C)C)c1O [propofol, 2,6-diisopropyl phenol]	less than 20 minutes	10 to 15	–	–	–
C=C1CC[C@@]2(O)[C@H]3Cc4ccc(O)c5c4[C@@]2(CCN3CC2CC2)[C@H]1O5 [nalmefene]	–	–	10.8	about 10.8 hours	approximately 50%
